Source: patent publication US11253594B2, “Drug combinations for protecting against neuronal cell death” (UNIVERSITY OF PITTSBURGH-OF THE COMMONWEALTH SYSTEM OF …, priority 2017, dated 2022)
Structures can show the parent of a compound that is named as a salt. Where two headings read alike, the source gives them in different places.

Columns and labels:
STHdh^Q111 cells [1] = test: 384-well PI (propidium iodide) assay, protection from mHTT induced cell death; format: cell-based, mouse; conditions: compound titrations, serum deprived STHdh^Q111 cells
Protocol: The well-established STHdh^Q111 cell model for HD was employed to identify compounds that can protect neuronal cells from mHTT-dependent cell death. […] The propidium iodide (PI) readout enables an unbiased assessment of cell death by measuring an irreversible step that is common to all cytotoxic mechanisms.
The stress conditions for testing compounds involved incubation of the cells in serum-free medium at 37° C. and 5% CO2.
Prior to compound treatment, medium was removed and the cells washed once with PBS (pH=7.4) after which 45 μl of complete medium was added. Compounds in 5 μl complete medium were added to cells. […] Compounds in serum free medium (5 μl) were added and cells were incubated at 37° C. and 5% CO2.
Image analysis was carried out using the Multiwavelength Cell Scoring application in the MetaXpress software. The nuclear compartment was identified in Ch1 with a threshold intensity of 2,000 above background and the Texas Red compartment was identified in Ch2 with a threshold intensity of 20,000 above background.
For the analyses presented here the Percent Recovery was calculated from the Percent PI positive cells by:
[formula] where positive controls are the STHdh^Q7 cells, and negative controls are the STHdh^Q111 cells treated with DMSO
The LOPAC library was screened in the 384-well PI assay at 30, 10, and 3 μM.

[2] = system: PKA phosphorylated at threonine 197 (pPKA) in STHdh^Q111 cells; test: PKA activation assay (pPKA, high content analysis); format: cell-based, mouse; conditions: 24 h serum free conditions
Protocol: The pPKA levels were examined at 24 hours after serum free conditions since this was the condition where the protection of the compounds was measured.
Cells were treated as described for testing in the 384-well PI assay. […] Plates were blocked with 3% BSA in PBS and were incubated with rabbit anti-PKA (αβγ catalytic subunit; EP2606Y; phospho-T197, abcam, Cambridge Mass.) mAb overnight at 4° C. […] Image analysis was carried out using the Multiwavelength Translocation application in the MetaExpress software. The nuclear compartment was identified in Ch1 with a threshold intensity of 5,000 above background (the nuclear mask). The nuclear mask was eroded 1 μm to create the Inner region mask in Ch2. […] The cytoplasmic pKA was measured in a […] ring around the nuclear mask.

STHdh^Q111 cells [3] = format: cell-based; conditions: for toxicity / protection with or of the PKA inhibitor: STHdh^Q111 cells, PI assay conditions; for reduction in the level of protection compared to compound alone: co-incubation with 10 μM H89
[4] = system: pCREB in the nucleus of STHdh^Q111 cells; test: Nuclear pCREB high content analysis (surrogate marker for PKA activity); format: cell-based, mouse; conditions: 10 μM H89 co-incubated with protective compounds
Excerpt: The concentrations used were chosen to be on plateau of their respective activity curves (see FIG. 3). […] Analysis is from triplicate samples run in four independent experiments (Error bars are +/−SE). T-test was used to assess changes in the percent recovery levels relative to the STHdh^Q111 cells treated with compound without H89. […] Analysis was from triplicate samples run in four independent experiments (Error bars are +/−SE). T-test was used to assess changes in the pCREB intensity relative to the STHdhQ111 cells treated with compound without H89.
H89 has been used extensively in the literature as a selective and potent inhibitor of PKA. If the protection from cell death by these compounds involved activation of PKA, then the addition of an inhibitor of PKA would be expected to reverse the protective effects of the compounds. […] Since the primary canonical mechanism of sodium nitroprusside is activation of PKG, and given that H89 is ˜10-fold selective for PKA over PKG, the absence of a marked effect with sodium nitroprusside is not unexpected. […] To confirm inhibition of PKA activity by H89 under the conditions of the PI assay, the levels of nuclear pCREB were measured using high content analysis. Consistent with the heterogeneity seen in the response of the STHdh^Q111 cells to protection by the compounds, a heterogeneous distribution of pCREB levels was also detected. […]

PKA = PKA (Homo sapiens, UniProt P17612); conditions: cited from earlier work
[5] = system: cAMP levels in STHdh^Q111 cells; test: cAMP Enzyme Immunoassay
cells expressing mHTT [6] = test: Example 2 screen of a larger mechanistically diverse chemical library for protection from mHTT-induced cytotoxicity
cells expressing mHTT [7] = system: cells expressing mHTT

| Compound | neuroprotective activity in the PI assay (STHdh^Q111 cells [1]) | other results |
| --- | --- | --- |
| CN1[C@@H]2CC[C@H]1CC(OC(=O)c1c[nH]c3ccccc13)C2.Cl (stereo partly shown) [3-tropanyl-indole-3-carboxylate hydrochloride] | confirmed neuroprotective activity | – |
| C/C=C1\C(=O)C[C@H]2[C@@H]3CCC4=CC(=O)CC[C@]4(C)[C@H]3CC[C@]12C [(Z)-Gugglesterone] | confirmed neuroprotective activity | – |
| CC(=O)Nc1nnc(S(N)(=O)=O)s1 [Acetazolamide] | did not protect | – |
| C[C@H]1C[C@H]2[C@@H]3CCC4=CC(=O)C=C[C@]4(C)[C@@]3(Cl)[C@@H](O)C[C@]2(C)[C@@]1(O)C(=O)CO [Beclomethasone] | confirmed neuroprotective activity | – |
| CN1[C@@H]2CC[C@H]1C[C@@H](OC(c1ccccc1)c1ccccc1)C2 [Benztropine mesylate] | confirmed neuroprotective activity | cytoplasmic pPKA, concentration response [2]: concentration-dependent increase; toxicity / protection with or of the PKA inhibitor (STHdh^Q111 cells [3]): increased toxicity |
| CCN[C@H]1CN(CCCOC)S(=O)(=O)c2sc(S(N)(=O)=O)cc21 [Brinzolamide] | did not protect | – |
| O=S(=O)(NCCNC/C=C/c1ccc(Br)cc1)c1cccc2cnccc12 [Combination H89] | – | toxicity / protection with or of the PKA inhibitor (STHdh^Q111 cells [3]): no significant protection or toxicity; levels of nuclear pCREB [4]: decreased; selectivity for PKA over PKG (PKA): ~10 fold |
| CN1CCC(=C2c3ccccc3C=Cc3ccccc32)CC1 [Cyproheptadine hydrochloride] | confirmed neuroprotective activity | – |
| O=c1[nH]c2ccccc2n1CCCN1CCC(n2c(=O)[nH]c3cc(Cl)ccc32)CC1 [Domperidone] | confirmed neuroprotective activity | reduction in the level of protection compared to compound alone (STHdh^Q111 cells [3]): 56% |
| CCN[C@H]1C[C@H](C)S(=O)(=O)c2sc(S(N)(=O)=O)cc21 [Dorzolamide] | did not protect | – |
| CCOc1ccc2nc(S(N)(=O)=O)sc2c1 [Ethoxzolamide] | confirmed neuroprotective activity | – |
| C[C@]12CCC(=O)C=C1CC[C@@H]1[C@@H]2[C@@H](O)C[C@@]2(C)[C@H]1CC[C@]2(O)C(=O)CO [Hydrocortisone] | confirmed neuroprotective activity | – |
| CCC(NC(C)C)C(O)c1ccc(O)c(O)c1 (stereo not shown) [Isotharine mesylate] | confirmed neuroprotective activity | cytoplasmic pPKA, concentration response [2]: concentration-dependent increase; reduction in the level of protection compared to compound alone (STHdh^Q111 cells [3]): 34%; statistical significance of change in cAMP levels ([5]; 15 and 30 minutes, t-test vs DMSO): statistically significant increase |
| CCCn1c(C)c(C(=O)c2cccc3ccccc23)c2ccccc21 [JWH-015] | confirmed neuroprotective activity | protection from mHTT-induced cytotoxicity in the screen (cells expressing mHTT [6]): demonstrating protection |
| Cc1c(OCC(F)(F)F)ccnc1C[S+]([O-])c1nc2ccccc2[nH]1 (stereo not shown) [Lansoprazole] | confirmed neuroprotective activity | – |
| O=C(O)c1nn(Cc2ccc(Cl)cc2Cl)c2ccccc12 [Lonidamine] | confirmed neuroprotective activity | – |
| CN1CCN(C2=Nc3ccccc3Oc3ccc(Cl)cc32)CC1 [Loxapine succinate] | confirmed neuroprotective activity | cytoplasmic pPKA, concentration response [2]: concentration-dependent increase; reduction in the level of protection compared to compound alone (STHdh^Q111 cells [3]): 52% |

| Compound | neuroprotective activity in the PI assay (STHdh^Q111 cells [1]) | other results |
| --- | --- | --- |
| Cc1cccc(CN2CCN(C(c3ccccc3)c3ccc(Cl)cc3)CC2)c1 (stereo not shown) [Meclizine] | confirmed neuroprotective activity | – |
| CN1CCN2c3ccccc3Cc3ccccc3C2C1 (stereo not shown) [Mianserin hydrochloride] | confirmed neuroprotective activity | cytoplasmic pPKA, concentration response [2]: concentration-dependent increase; reduction in the level of protection compared to compound alone (STHdh^Q111 cells [3]): 35% |
| Cc1cccc(C(=O)NCN2CCN(c3ccccc3C#N)CC2)c1.O=C(O)/C=C\C(=O)O [PD 168,077 maleate] | confirmed neuroprotective activity | – |
| COc1ccc(Cc2nccc3cc(OC)c(OC)cc23)cc1OC [Papaverine hydrochloride] | confirmed neuroprotective activity | cytoplasmic pPKA, concentration response [2]: less pronounced; reduction in the level of protection compared to compound alone (STHdh^Q111 cells [3]): 55% |
| C[C@]12C=CC(=O)C=C1CC[C@@H]1[C@@H]2[C@@H](O)C[C@@]2(C)[C@H]1CC[C@]2(O)C(=O)CO [Prednisolone] | confirmed neuroprotective activity | – |
| CN1CCN(c2ccc3ccccc3n2)CC1.O=C(O)/C=C\C(=O)O.O=C(O)/C=C\C(=O)O [Quipazine, N-methyl-, dimaleate] | confirmed neuroprotective activity | – |
| N.N.N.N.N.N.N.N.N.N.N.N.N.N.[Cl-].[Cl-].[Cl-].[Cl-].[Cl-].[Cl-].[O-2].[O-2].[Ru+3].[Ru+3].[Ru+4] [Ruthenium red] | confirmed neuroprotective activity | – |
| CNC(=O)COC(=O)N1CCC(CCc2ccc(Cl)cc2)CC1 [SA 57] | – | protection from mHTT-induced cytotoxicity in the screen (cells expressing mHTT [7]): demonstrating protection |
| O=C(OCCN1CCCCC1)c1c[nH]c2ccccc12 [SB 203186] | confirmed neuroprotective activity | – |
| C[C@]12C=CC(=O)C=C1CC[C@H]1[C@@H]3C[C@@H](O)[C@](O)(C(=O)CO)[C@@]3(C)C[C@H](O)[C@@]12F [Triamcinolone] | confirmed neuroprotective activity | – |
| Cc1ccc(/C(=C\CN2CCCC2)c2ccccn2)cc1 [Triprolidine hydrochloride] | confirmed neuroprotective activity | – |
| Cc1c(C)c2c(c(C)c1O)CCC(C)(CN1CCN(c3cc(N4CCCC4)nc(N4CCCC4)n3)CC1)O2.Cl.Cl (stereo not shown) [U-83836 dihydrochloride] | confirmed neuroprotective activity | – |
| CCOC(=O)C1=C[C@]2(CC)CCCN3CCc4c(n1c1ccccc41)[C@@H]32 [Vinpocetine] | confirmed neuroprotective activity | – |
| O=C(CCCCCCC(=O)Nc1ccccc1)NO [Vorinostat] | confirmed neuroprotective activity | – |
| C=C[C@@]1(C)CC(=O)[C@]2(O)[C@@]3(C)[C@@H](O)CCC(C)(C)[C@@H]3[C@H](O)[C@H](OC(C)=O)[C@@]2(C)O1 [forskolin] | – | increase in cAMP over the DMSO control ([5]; 15 minutes after compound treatment in the presence of serum): 250 fold |
| Tetradecylthioacetic acid | confirmed neuroprotective activity | – |
| m-Iodobenzylguanidine hemisulfate | confirmed neuroprotective activity | – |
